Our source for the IC50 values is patent US20260356856A1, “KRAS G12S AND G12C INHIBITORS” (MIRATI THERAPEUTICS, INC., priority 2023, published 2026).

The term IC50 denotes the concentration at which inhibition is half-maximal. Higher therefore signals weaker potency in that assay.

One assay addresses T1, KRas G12S (Homo sapiens, UniProt P01116, G12S).
T1 construct: Biotinylated KRas (corresponding to amino acids 1-169, produced at Accelegan Inc.); biotin (biotinylated); purchased Accelegan Inc
As to the kind of experiment: KRas binding assay, TR-FRET displacement of Cy5 labelled tracer. The note with it: 60-minute incubation at room temperature, 1% DMSO, pH 7.5. The gist of the method: (§1)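 Room-temperature incubation (60 min) of compound with biotinylated KRas 1-169, tracer and Tb-streptavidin preceded the TR-FRET read. Final DMSO was 1%; buffer pH 7.5. Percent-of-control values went into a 4-parameter equation to give IC50.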
A general note: In TR-FRET formats the signal depends on donor and acceptor labels being close together.

Another assay has as its target T2, KRas WT (Homo sapiens, UniProt P01116).
T2 construct: Biotinylated KRas (corresponding to amino acids 1-169, produced at Accelegan Inc.); biotin (biotinylated); purchased Accelegan Inc
The assay is described as above. The note with it: 60-minute incubation at room temperature, 1% DMSO, pH 7.5. The gist of the method: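 Biotinylated KRas (residues 1-169) was incubated with tracer, terbium-streptavidin and compound at 1% DMSO final in 50 mM HEPES pH 7.5 containing 5 mM MgCl2, 0.005% Tween-20 and 1 mM DTT. The plate was read after 60 min at room temperature, and percent-of-control data were fit to a 4-parameter IC50 equation.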

The next assay has as its target T3, KRas G12C (Homo sapiens, UniProt P01116, G12C).
T3 construct: Biotinylated KRas (corresponding to amino acids 1-169, produced at Accelegan Inc.); biotin (biotinylated); purchased Accelegan Inc
The assay is described as above. The conditions noted are these: 60-minute incubation at room temperature, 1% DMSO, pH 7.5. The gist of the method:
as §1

Assay [1] has as its target T4, KRas-mediated phosphorylation of ERK in H358 cells (Homo sapiens, UniProt P01116, G12C).
T4 construct: pERK HTRF read-out
As to the kind of experiment: Inhibition of KRas-mediated phosphorylation of ERK (HTRF), H358 cells. The class given is cell-based. The conditions noted are these: HTRF pERK, 3 h incubation.

Assay [2] has as its target T5, KRas-mediated phosphorylation of ERK in MKN1 cells (Homo sapiens, UniProt P01116).
T5 construct: pERK HTRF read-out
As to the kind of experiment: Inhibition of KRas-mediated phosphorylation of ERK (HTRF), MKN1 cells. The class given is cell-based. The note with it: MKN1 cells (KRas WT); HTRF pERK; 3 h incubation. How it is done: Inhibition of KRas Phosphorylation of ERK (HTRF) by Exemplary Compounds of Formula (Ia) or (Ib)
Cisbio HTRF Advanced pERK Assay Catalog #64AERPEH • Cells: MKN1, PSN1 • Procedure: • 1. Day 1: Seed 6,000 cells/well −25 μl/well in 384-well white solid bottom plate; RPM1_10% FBS. Incubate overnight at 37 °C/5% CO2. • 2.

Assay [3] has as its target T6, KRas-mediated phosphorylation of ERK in A549 cells (Homo sapiens, UniProt P01116, G12S).
T6 construct: pERK HTRF read-out
As to the kind of experiment: Inhibition of KRas-mediated phosphorylation of ERK (HTRF), A549 cells. The assay is classed as cell-based. The conditions noted are these: HTRF pERK, 3 h incubation.

T1 sequence (P01116 1-169 isoform P01116-2 G12S): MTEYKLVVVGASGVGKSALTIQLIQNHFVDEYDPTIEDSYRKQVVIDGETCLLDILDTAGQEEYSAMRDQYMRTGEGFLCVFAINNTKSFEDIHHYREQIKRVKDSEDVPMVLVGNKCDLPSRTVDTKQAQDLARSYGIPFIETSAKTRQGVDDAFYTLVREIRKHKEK
T2 sequence (P01116 1-169 isoform P01116-2): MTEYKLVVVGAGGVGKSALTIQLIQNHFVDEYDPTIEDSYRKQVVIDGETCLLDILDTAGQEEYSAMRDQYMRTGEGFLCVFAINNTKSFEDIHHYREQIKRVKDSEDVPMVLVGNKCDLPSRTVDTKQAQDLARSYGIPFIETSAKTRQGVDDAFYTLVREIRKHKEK
T3 sequence (P01116 1-169 isoform P01116-2 G12C): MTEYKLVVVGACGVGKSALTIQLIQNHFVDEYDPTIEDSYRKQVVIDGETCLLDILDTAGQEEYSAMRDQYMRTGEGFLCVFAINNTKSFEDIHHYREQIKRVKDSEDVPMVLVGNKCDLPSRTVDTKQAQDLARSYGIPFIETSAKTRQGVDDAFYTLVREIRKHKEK
T5 sequence (P01116 1-188 isoform P01116-2): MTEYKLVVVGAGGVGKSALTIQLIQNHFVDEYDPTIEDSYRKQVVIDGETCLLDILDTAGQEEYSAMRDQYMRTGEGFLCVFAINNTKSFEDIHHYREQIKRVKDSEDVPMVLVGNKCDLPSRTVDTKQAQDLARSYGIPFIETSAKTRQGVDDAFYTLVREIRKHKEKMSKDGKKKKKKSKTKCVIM
T4 sequence (P01116 1-188 isoform P01116-2 G12C): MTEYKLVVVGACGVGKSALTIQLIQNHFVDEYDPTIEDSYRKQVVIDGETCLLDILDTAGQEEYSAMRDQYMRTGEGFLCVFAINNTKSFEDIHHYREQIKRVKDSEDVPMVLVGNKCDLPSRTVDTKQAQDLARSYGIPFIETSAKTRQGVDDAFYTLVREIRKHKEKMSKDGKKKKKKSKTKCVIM
T6 sequence (P01116 1-188 isoform P01116-2 G12S): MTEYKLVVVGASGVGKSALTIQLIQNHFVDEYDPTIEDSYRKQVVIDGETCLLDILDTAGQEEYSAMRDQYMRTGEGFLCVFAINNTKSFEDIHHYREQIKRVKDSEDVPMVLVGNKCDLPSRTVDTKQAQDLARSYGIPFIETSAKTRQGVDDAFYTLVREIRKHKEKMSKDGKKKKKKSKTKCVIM

For `CCc1c(F)ccc2cc(O)cc(-c3ncc4c(N(C)C(C)CCC(=O)N(C)C(C)=O)nc(OC[C@@]56CCCN5C[C@H](F)C6)nc4c3F)c12` (stereo partly drawn) [Example 282, N-acetyl-4-((7-(8-ethyl-7-fluoro-3-hydroxynaphthalen-1-yl)-8-fluoro-2-(((2R,7aS)-2-fluorotetrahydro-1H-pyrrolizin-7a(5H)-yl)methoxy)pyrido[4,3-d]pyrimidin-4-yl)(methyl)amino)-N-methylpentanamide], the IC50 came to 44 nM at KRas G12S; 184 nM on KRas WT; 82 nM on KRas G12C; 1290 nM in assay [1]; 870 nM in assay [2]; 185 nM in assay [3].
In the case of `Cc1ccn(C(=O)CCCN(C)c2cc(O[C@@H](C)[C@@H]3CCCN3C)nc(-c3cc([C@]4(C)CCCc5sc(N)c(C#N)c54)sn3)n2)n1` [Example 323, (R)-2-amino-4-methyl-4-(3-(4-(methyl (4-(3-methyl-1H-pyrazol-1-yl)-4-oxobutyl)amino)-6-((S)-1-((S)-1-methylpyrrolidin-2-yl)ethoxy)pyrimidin-2-yl)isothiazol-5-yl)-4,5,6,7-tetrahydrobenzo[b]thiophene-3-carbonitrile], the IC50 on KRas G12S came to 26 nM; on KRas WT, 346 nM; at KRas G12C it was 17 nM; in assay [1], 3330 nM; in assay [2] it was 1860 nM; in assay [3], 140 nM.
For `CN(C=O)C(=O)CCCN(C)c1nc(OC[C@@]23CCCN2C[C@H](F)C3)nc2c(F)c(-c3ccc(F)c4sc(N)c(C#N)c34)c(Cl)cc12` [Example 235, 4-((7-(2-amino-3-cyano-7-fluorobenzo[b]thiophen-4-yl)-6-chloro-8-fluoro-2-(((2R,7aS)-2-fluorotetrahydro-1H-pyrrolizin-7a(5H)-yl)methoxy)quinazolin-4-yl)(methyl)amino)-N-formyl-N-methylbutanamide], the IC50 was 2 nM at KRas G12S; 6 nM on KRas WT; 3 nM on KRas G12C; 60 nM in assay [1]; 82 nM in assay [2]; 7 nM in assay [3].
Consider `CC(C)(C)c1ccn(C(=O)C2CCCN(c3nc(OC[C@@]45CCCN4C[C@H](F)C5)nc4c(F)c(-c5ccc(F)c6sc(N)c(C#N)c56)c(Cl)cc34)CC2)n1` (stereo partly drawn) [Example 220, 2-amino-4-(4-(4-(3-(tert-butyl)-1H-pyrazole-1-carbonyl)azepan-1-yl)-6-chloro-8-fluoro-2-(((2R,7aS)-2-fluorotetrahydro-1H-pyrrolizin-7a(5H)-yl)methoxy)quinazolin-7-yl)-7-fluorobenzo[b]thiophene-3-carbonitrile], for which the IC50 at KRas G12S was found to be 153 nM; at KRas WT, 160 nM; at KRas G12C it was 209 nM; in assay [1], 449 nM; in assay [2] it was 258 nM; in assay [3], 336 nM.
As for `CCc1c(F)ccc2cc(O)cc(-c3ncc4c(N5CCC(C(=O)n6nc(C)cc6C)CC5)nc(OC[C@@]56CCCN5C[C@H](F)C6)nc4c3F)c12` [Example 74, (3,5-dimethyl-1H-pyrazol-1-yl)(1-(7-(8-ethyl-7-fluoro-3-hydroxynaphthalen-1-yl)-8-fluoro-2-(((2R,7aS)-2-fluorotetrahydro-1H-pyrrolizin-7a(5H)-yl)methoxy)pyrido[4,3-d]pyrimidin-4-yl)piperidin-4-yl)methanone], the half-inhibitory concentration (IC50) was 885 nM on KRas G12S; 798 nM on KRas WT; 578 nM on KRas G12C; 2290 nM in assay [1]; 3330 nM in assay [2]; 464 nM in assay [3].
On to `CCN(C(C)=O)C(=O)CCCN(C)c1nc(OC[C@@]23CCCN2C[C@H](F)C3)nc2c(F)c(-c3ccc(F)c4sc(N)c(C#N)c34)c(Cl)cc12` [Example 291, N-acetyl-4-((7-(2-amino-3-cyano-7-fluorobenzo[b]thiophen-4-yl)-6-chloro-8-fluoro-2-(((2R,7aS)-2-fluorotetrahydro-1H-pyrrolizin-7a(5H)-yl)methoxy)quinazolin-4-yl)(methyl)amino)-N-ethylbutanamide], for which the IC50 on KRas G12S came out at 7 nM; at KRas WT, 12 nM; on KRas G12C, 6 nM; in assay [1], 81 nM; in assay [2] it was 134 nM; in assay [3], 65 nM.
For `Cc1ccn(C(=O)CC2CN(c3nc(OC[C@@]45CCCN4C[C@H](F)C5)nc4c(F)c(-c5ccc(F)c6sc(N)c(C#N)c56)c(Cl)cc34)C2)n1` [Example 138, 2-amino-4-(6-chloro-8-fluoro-2-(((2R,7aS)-2-fluorotetrahydro-1H-pyrrolizin-7a(5H)-yl)methoxy)-4-(3-(2-(3-methyl-1H-pyrazol-1-yl)-2-oxoethyl)azetidin-1-yl)quinazolin-7-yl)-7-fluorobenzo[b]thiophene-3-carbonitrile], the IC50 was found to be 6 nM on KRas G12S; 16 nM on KRas WT; 13 nM on KRas G12C; 157 nM in assay [1]; 106 nM in assay [2]; 137 nM in assay [3].
As to `CCc1c(F)ccc2cc(O)cc(-c3ncc4c(NCCCC(=O)N(C)C(C)=O)nc(OC[C@@]56CCCN5C[C@H](F)C6)nc4c3F)c12` [Example 261, N-acetyl-4-((7-(8-ethyl-7-fluoro-3-hydroxynaphthalen-1-yl)-8-fluoro-2-(((2R,7aS)-2-fluorotetrahydro-1H-pyrrolizin-7a(5H)-yl)methoxy)pyrido[4,3-d]pyrimidin-4-yl)amino)-N-methylbutanamide], the IC50 is 15 nM at KRas G12S; 23 nM on KRas WT; 14 nM on KRas G12C; 159 nM in assay [1]; 159 nM in assay [2]; 67 nM in assay [3].
As to `CON(C(C)=O)C(=O)CCCN(C)c1nc(OC[C@@]23CCCN2C[C@H](F)C3)nc2c(F)c(-c3ccc(F)c4sc(N)c(C#N)c34)c(Cl)cc12` [Example 234, N-acetyl-4-((7-(2-amino-3-cyano-7-fluorobenzo[b]thiophen-4-yl)-6-chloro-8-fluoro-2-(((2R,7aS)-2-fluorotetrahydro-1H-pyrrolizin-7a(5H)-yl)methoxy)quinazolin-4-yl)(methyl)amino)-N-methoxybutanamide], the IC50 is 3 nM at KRas G12S; 9 nM on KRas WT; less than 2 nM at KRas G12C; 7 nM in assay [1]; 161 nM in assay [2]; 3 nM in assay [3].
On to `CCc1c(F)ccc2cc(O)cc(-c3ncc4c(N(C)CCCC(=O)N(C)C(C)=O)nc(OC[C@@]56CCCN5C[C@H](F)C6)nc4c3F)c12` [Example 221, N-acetyl-4-((7-(8-ethyl-7-fluoro-3-hydroxynaphthalen-1-yl)-8-fluoro-2-(((2R,7aS)-2-fluorotetrahydro-1H-pyrrolizin-7a(5H)-yl)methoxy)pyrido[4,3-d]pyrimidin-4-yl)(methyl)amino)-N-methylbutanamide], for which the IC50 at KRas G12S is 11 nM; on KRas WT, 101 nM; at KRas G12C it was 43 nM; in assay [1], 485 nM; in assay [2] it was 409 nM; in assay [3], 26 nM.
Turning to `CCc1c(F)ccc2cc(O)cc(-c3ncc4c(N5C[C@H]6C[C@@H](C(=O)n7ccc(C)n7)C[C@H]6C5)nc(OC[C@@]56CCCN5C[C@H](F)C6)nc4c3F)c12` [Example 128, ((3aR,5S,6aS)-2-(7-(8-ethyl-7-fluoro-3-hydroxynaphthalen-1-yl)-8-fluoro-2-(((2R,7aS)-2-fluorotetrahydro-1H-pyrrolizin-7a(5H)-yl)methoxy)pyrido[4,3-d]pyrimidin-4-yl)octahydrocyclopenta[c]pyrrol-5-yl)(3-methyl-1H-pyrazol-1-yl)methanone], the IC50 on KRas G12S is 11 nM; on KRas WT, 1190 nM; at KRas G12C, 93 nM; in assay [1], 1540 nM; in assay [2] it was 7430 nM; in assay [3], 57 nM.
With `C#Cc1c(F)ccc2cc(O)cc(-c3ncc4c(N5CCC(C(=O)n6ccc(C)n6)CC5)nc(OC[C@@]56CCCN5C[C@H](F)C6)nc4c3F)c12` [Example 67, (1-(7-(8-ethynyl-7-fluoro-3-hydroxynaphthalen-1-yl)-8-fluoro-2-(((2R,7aS)-2-fluorotetrahydro-1H-pyrrolizin-7a(5H)-yl)methoxy)pyrido[4,3-d]pyrimidin-4-yl)piperidin-4-yl)(3-methyl-1H-pyrazol-1-yl)methanone], the 50% inhibitory concentration (IC50) at KRas G12S worked out at 17 nM; on KRas WT, 15 nM; at KRas G12C it was 51 nM; in assay [1] it was 3080 nM; in assay [2], 3290 nM; in assay [3] it was 113 nM.
